Measurements taken from patent US20170137481A1, “Use of Cell-Permeable Peptide Inhibitors of the JNK Signal Transduction Pathway for the Treatment of Various Diseases” (Xigen Inflammation Ltd., priority 2014, published 2017).
Blank lines part the entries; values can stand above or below the molecule they belong to. Non-standard residues stand in square brackets, D forms with d. No end group written: not given here.

Assays:
[1] = tested on: acute CYP-induced cystitis in female Sprague-Dawley rats; experiment: CYP-induced acute cystitis, intravesical treatment; type: in vivo, rat; conditions: 50 mg/mL i.ves.; 24 h post-CYP
Method: (§1) This preclinical model is well-used to test therapeutic approaches for the treatment of interstitial cystitis/painful bladder syndrome (IC/PBS).
(§2) Animals were acclimatized to the laboratory conditions for at least 3 days before the start of any experiments. The animals were allocated to the following four experimental groups (n=10 animals per group):
To induce acute cystitis, a single i.p. injection of CYP at a dose of 150 mg/kg in a final volume of 5 mL/kg was performed. Control rats received physiological saline under the same experimental conditions as CYP (final volume of 5 mL/kg, i.p.).
(§3) On the day of each experiment, weight of rats was recorded.
(§4) Standardized conditions including fixed time-of-day (a.m. to minimize the potential circadian variations in the behaviours responses) and single-experimenter testing of all animals were applied to minimize variability behavior-based pain testing. Visceral pain including allodynia and hyperalgesia was evaluated by applying to the lower abdomen, close to the urinary bladder, a set of 8 calibrated von Frey filaments of increasing forces (1, 2, 4, 6, 8, 10, 26 and 60 g) with an interstimulus interval of 5 seconds. Prior testing, the abdominal area designed for mechanical stimulation of each animal was shaved. Animals were then placed on a raised wire mesh floor under individual transparent Plexiglas box and acclimatized for at least 30 minutes before starting the von Frey test. Filaments were then applied 1-2 seconds through the mesh floor with enough strength to cause the filament to slightly bend. Each filament was tested 3 times. Care was taken to stimulate different areas within the lower abdominal region in the vicinity of the urinary bladder to avoid desensitization.
Urinary bladders were rapidly collected and cleaned from lipoid tissue. […] Finally, wall thickness was measured using a digital caliper by placing the bladder wall between the two outside jaws.

[2] = tested on: acute CYP-induced cystitis in female Sprague-Dawley rats; experiment: CYP-induced acute cystitis, intravenous treatment, visceral pain; type: in vivo, rat; conditions: XG-102 2 mg/kg i.v., ibuprofen 10 mg/kg i.v.; 24 h post-CYP
Method: as §1, §2
Control rats received physiological saline under the same experimental conditions as CYP (final volume of 5 mL/kg, i.p.).
as §3
as §4, with “Filaments were then applied 1-2 seconds through the mesh floor with enough strength to cause the filament to slightly bend. Each filament was tested 3 times. Care was taken to stimulate different areas within the lower abdominal region in the vicinity of the urinary bladder to avoid desensitization.” left out

TC-3 cell cultures = experiment: Cellular import of fluorescein labeled TAT and TAT-IB1(s) peptides; type: cell-based; conditions: 1 μM
Method: The ability of the L- and D-enantiomeric forms of TAT and TAT-IB1(s) peptides (“TAT-IB peptides”) to enter cells was evaluated. L-TAT, D-TAT, L-TAT-IB1(s), and D-TAT-IB1(s) peptides [SEQ ID NOs: 5, 6, 9 and 12, respectively] were labeled by N-terminal addition of a glycine residue conjugated to fluorescein. Labeled peptides (1 μM) were added to TC-3 cell cultures, which were maintained as described in Example 3. At predetermined times cells were washed with PBS and fixed for five minutes in ice-cold methanol-acetone (1:1) before being examined under a fluorescence microscope. Fluorescein-labeled BSA (1 μM, 12 moles/mole BSA) was used as a control.

TC-3 cells = experiment: IL-1 induced pancreatic beta-cell death with peptides; type: cell-based; conditions: 1 μM single addition
Method: Inhibition of IL-1 induced pancreatic beta-cell death by the D-TAT-IB1(s) peptide was analyzed. TC-3 cells were incubated as described above for 30 minutes with one single addition of the indicated peptides (1 μM), then IL-1 (10 ng/ml) was added.
Apoptotic cells were then counted after two days of incubation with IL-1 by use of Propidium Iodide and Hoechst 33342 nuclear staining. A minimum of 1,000 cells were counted for each experiment. Standard Error of the Means (SEM) are indicated, n=5.
Long term inhibition of IL-1 P induced cell-death by the D-TAT-IB1 peptide was also analyzed. TC-3 cells were incubated as above for 30 minutes with one single addition of the indicated peptides (1 μM), then IL-1 (10 ng/ml) was added, followed by addition of the cytokine every two days. Apoptotic cells were then counted after 15 days of incubation with IL-1 by use of propidium iodide and Hoechst 33342 nuclear staining. […] A minimum of 1.000 cells were counted for each experiment.

[3] = tested on: AP-1 DNA binding complex in HeLa cell nuclear extracts; experiment: AP-1 gel retardation assay; type: cell-based; conditions: TNF-alpha 5 ng/ml
JNK = conditions: JBDs; cited from earlier work
[4] = tested on: JNK mediated activation of c-Jun in HeLa cells; experiment: GAL4-Jun luciferase reporter after MKK4/MKK7 co-transfection; type: cell-based; conditions: 1 μM
From the text: To determine whether the cell-permeable peptides as defined herein could block JNK signaling in vivo, we used a heterologous GAL4 system. HeLa cells, cultured as described above, were co-transfected with the 5×GAL-LUC reporter vector together with the GAL-Jun expression construct (Stratagene) comprising the activation domain of c-Jun (amino acids 1-89) linked to the GAL4 DNA-binding domain. Activation of JNK was achieved by the co-transfection of vectors expressing the directly upstream kinases MKK4 and MKK7 (see Whitmarsh et al., Science 285: 1573 (1999)). Briefly, 3×10^5 cells were transfected with the plasmids in 3.5-cm dishes using DOTAP (Boehringer Mannheim) following instructions from the manufacturer. For experiments involving GAL-Jun, 20 ng of the plasmid was transfected with 1 μg of the reporter plasmid pFR-Luc (Stratagene) and 0.5 μg of either MKK4 or MKK7 expressing plasmids. Three hours following transfection, cell media were changed and TAT and TAT-IB1(s) peptides (1 μM) were added. The luciferase activities were measured 16 hours later using the “Dual Reporter System” from Promega after normalization to protein content. […] Because HeLa cells express JNK1 and JNK2 isoforms but not JNK3, we transfected cells with JNK3.

JNK3 = molecular target: T1, JNK3 (Homo sapiens, UniProt P53779); experiment: Solid phase kinase assay, JNK3 phosphorylation of Elk1; type: biochemical; conditions: 0-25 μM
T1 construct: host or cells: cell-free: rabbit reticulocyte lysate transcription/translation
Method: (§5) The effects of the peptides on JNKs-mediated phosphorylation of their target transcription factors were investigated in vitro. Recombinant and non activated JNK1, JNK2 and JNK3 were produced using a TRANSCRIPTION AND TRANSLATION rabbit reticulocyte lysate kit (Promega) and used in solid phase kinase assays with c-jun, ATF2 and Elk1, either alone or fused to glutathione-S-transferase (GST), as substrates. Dose response studies were performed wherein L-TAT or L-TAT-IB1 (s) peptides (0-25 μM) were mixed with the recombinant JNK1, JNK2, or JNK3 kinases in reaction buffer (20 mM Tris-acetate, 1 mM EGTA, 10 mM p-nitrophenyl-phosphate (pNPP), 5 mM sodium pyrophosphate, 10 mM p-glycerophosphate, 1 mM dithiothreitol) for 20 minutes. The kinase reactions were then initiated by the addition of 10 mM MgCl2 and […] ^33P-gamma-dATP and 1 μg of either GST-Jun (aa 1-89), GST-AFT2 (aa 1-96) or GST-ELK1 (aa 307-428). GST-fusion proteins were purchased from Stratagene (La Jolla, Calif.).
(§6) Ten μL of glutathione-agarose beads were also added to the mixture. Reaction products were then separated by SDS-PAGE on a denaturing 10% polyacrylamide gel. […] The ability of D-TAT, D-TAT-IB1(s) and L-TAT-IB1(s) peptides (0-250 μM dosage study) to inhibit GST-Jun (aa 1-73) phosphorylation by recombinant JNK1, JNK2, and JNK3 by were analyzed as described above. […]

[5] = tested on: recombinant JNK1, JNK2 and JNK3; experiment: Solid phase kinase assay, phosphorylation of c-Jun, ATF2 and Elk1; type: biochemical; conditions: dose response 0-25 μM
Method: as §5, §6

[6] = tested on: JNKs from UV-light irradiated HeLa cells or IL-1 treated TC-3 cells; experiment: c-Jun phosphorylation by activated JNKs pulled down with GST-Jun; type: biochemical; conditions: 25 μM
Method: The effects of the L-TAT or L-TAT-IB1(s) peptides as defined herein on JNKs activated by stressful stimuli were evaluated using GST-Jun to pull down JNKs from UV-light irradiated HeLa cells or IL-1 treated PTC cells. PTC cells were cultured as described above. HeLa cells were cultured in DMEM medium supplemented with 10% Fetal Calf Serum, 100 μg/mL Streptomycin, 100 units/ml Penicillin and 2 mM Glutamine. One hour prior to being used for cell extract preparation, PTC cells were activated with IL-1 as described above, whereas HeLa cells were activated by UV-light (20 J/m^2). Cell extracts were prepared from control, UV-light irradiated HeLa cells and IL-1 treated TC-3 cells by scraping the cell cultures in lysis buffer (20 mM Tris-acetate, 1 mM EGTA, 1% Triton X-100, 10 mM p-nitrophenyl-phosphate, 5 mM sodium pyrophosphate, 10 mMP-glycerophosphate, 1 mM dithiothreitol). Debris was removed by centrifugation for five minutes at 15,000 rpm in an SS-34 Beckman rotor. One-hundred μg extracts were incubated for one hour at room temperature with one μg GST-jun (amino acids 1-89) and 10 μL of glutathione-agarose beads (Sigma). Following four washes with the scraping buffer, the beads were resuspended in the same buffer supplemented with L-TAT or L-TAT-IB1(s) peptides (25 μM) for 20 minutes. […]

T1 sequence (P53779 whole entry, species assumed): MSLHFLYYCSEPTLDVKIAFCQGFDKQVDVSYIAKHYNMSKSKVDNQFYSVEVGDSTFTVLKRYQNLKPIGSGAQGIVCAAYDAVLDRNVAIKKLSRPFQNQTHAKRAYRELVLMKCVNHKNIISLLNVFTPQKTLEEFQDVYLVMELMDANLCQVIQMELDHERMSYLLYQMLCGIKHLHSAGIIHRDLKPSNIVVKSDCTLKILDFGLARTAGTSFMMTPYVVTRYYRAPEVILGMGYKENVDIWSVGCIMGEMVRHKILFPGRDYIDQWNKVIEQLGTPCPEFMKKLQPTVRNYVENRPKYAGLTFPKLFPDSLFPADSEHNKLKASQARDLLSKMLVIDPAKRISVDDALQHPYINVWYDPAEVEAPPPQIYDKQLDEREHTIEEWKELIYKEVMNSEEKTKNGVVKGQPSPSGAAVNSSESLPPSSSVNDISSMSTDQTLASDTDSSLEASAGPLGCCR

Molecule: CC(C)Cc1ccc(C(C)C(=O)O)cc1 (stereo not shown) [ibuprofen]
haemorrhage scores [1]: no significant change was observed regarding haemorrhage scores
nociceptive scores versus vehicle [1]: significant decrease of nociceptive scores
nociceptive threshold versus vehicle [1]: significantly increased
urinary bladder wall thickness [1]: a significant decrease was observed in urinary bladder wall thickness
nociceptive scores versus vehicle [2]: significantly decrease nociceptive scores
nociceptive threshold versus vehicle [2]: significantly increased

Molecule: GRKKRRQRRR (Description of sequence Peptide L-TAT (see Table 1))
entry into cells (TC-3 cell cultures): efficiently and rapidly (less than five minutes) entered cells

Molecule: GRKKRRQRRRPPRPKRPTTLNLFPQVPRSQD (Description of sequence L-TAT-IB1 (s) (see Table 1)) [L-TAT-IB1(s)]
long term protection from IL-1 induced cell death (TC-3 cells; 15 days IL-1): not
entry into cells (TC-3 cell cultures): efficiently and rapidly (less than five minutes) entered cells
formation of the AP-1 DNA binding complex [3]: decrease the formation of the AP-1 DNA binding complex in the presence of TNF-alpha

Molecule: IPSPSVEEPHKHRPTTLRLTTLGAQDS (Description of sequence Peptide IB2-long (see Table 1))
efficiency in binding JNK versus c-Jun or ATF2 (JNK): approximately 100 fold

Molecule: PGTGCGDTYRPKRPTTLNLFPQVPRSQDT (Description of sequence peptide IB1-long (see Table 1))
efficiency in binding JNK versus c-Jun or ATF2 (JNK): approximately 100 fold

Molecule: RRRQRRKKRG (D-amino acids; Description of sequence Peptide D-TAT (see Table 1))
entry into cells (TC-3 cell cultures): efficiently and rapidly (less than five minutes) entered cells

peptide dose with nearly complete inhibition of c-Jun, ATF2 and Elk1 phosphorylation by JNKs [5]: 2.5 µM
Molecule: TAT-IB(s): TAT-IB1(s) peptide of Examples 5 to 7, there the L-TAT-IB1(s) peptide (GRKKRRQRRRPPRPKRPTTLNLFPQVPRSQD)
activation of c-Jun in cells transfected with JNK3 [4]: inhibited JNK2 mediated activation of c-Jun
activation of c-Jun following MKK4 and MKK7 mediated activation of JNK ([4]; luciferase 16 hours later): blocked activation of c-Jun following MKK4 and MKK7 mediated activation of JNK
inhibition of JNK3 phosphorylation of Elk1 (JNK3): absence of TAT-IB(s) inhibition of JNK3 phosphorylation of Elk1
phosphorylation of c-Jun by activated JNKs [6]: efficiently prevented phosphorylation of c-Jun by activated JNKs

Molecule: TDQSRPVQPFLNLTTPRKPRYTDPPRRRQRRKKRG ([dT][dD][dQ][dS][dR][dP][dV][dQ][dP][dF][dL][dN][dL][dT][dT][dP][dR][dK][dP][dR][dY][dT][dD][dP][dP][dR][dR][dR][dQ][dR][dR][dK][dK][dR]G) [D-TAT-IB1]
IL-1 induced apoptosis (TC-3 cells; two days IL-1): decreased IL-1 induced apoptosis to a similar extent as L-TAT-IB peptides
